Holding throughout (test): General post-emergent herbicidal activity, foliar application
Type in all cases: in vivo

One assay has as its system Oryza sativa L. (rice). Particulars: Oryza sativa, 336 h, scored after 14 days, read-out: % Visual Growth Reduction ORYSA; for plant injury at 140 g/ha: 140 g ai/ha; for plant injury at 35 g/ha: 35 g ai/ha; for plant injury at 70 g/ha: 70 g ai/ha. Here is the method:
(§1) A weighed amount, determined by the highest rate to be tested, of each test compound was placed in a 25 mL glass vial and was dissolved in 4 mL of a 97:3 v/v (volume/volume) mixture of acetone and dimethyl sulfoxide to obtain concentrated stock solutions which will be referred to as General Purpose Solvent. […] The concentrated stock solutions obtained were diluted with 20 mL of an aqueous mixture containing water, General Purpose Solvent, isopropyl alcohol, Atplus 411F crop oil concentrate, and Triton X-155 surfactant in a 46:42:12:1.0:0.02 v/v ratio to obtain spray solutions containing the highest application rates. Additional application rates were obtained by serial dilution of 12 mL of the high rate solution into a solution containing 2 mL of 97:3 v/v (volume/volume) mixture of acetone and dimethyl sulfoxide and 10 mL of an aqueous mixture containing water, General Purpose Solvent, isopropyl alcohol, Atplus 411F crop oil concentrate, and Triton X-155 surfactant in a 46:42:12:1.0:0.02 v/v ratio to obtain 1/2×, 1/4×, 1/8× and 1/16× rates of the high rate. […] Control plants were sprayed in the same manner with the solvent blank.
(§2) The treated plants and control plants were placed in a greenhouse as described above and watered by sub-irrigation to prevent wash-off of the test compounds. After 14 days, the condition of the test plants as compared with that of the untreated plants was determined visually and scored on a scale of 0 to 100 percent where 0 corresponds to no injury and 100 corresponds to complete kill.

The subject of the next assay is Zea mays L. (corn). The conditions noted are these: 336 h, scored after 14 days, read-out: % Visual Growth Reduction ZEAMX; for plant injury at 140 g/ha: 140 g ai/ha; for plant injury at 35 g/ha: 35 g ai/ha; for plant injury at 70 g/ha: 70 g ai/ha. On the procedure:
as §1, §2

The test system of assay [1] is Helianthus annuus L. (sunflower, common). The conditions noted are these: for pest or weed control at 140 g/ha: 140 g ai/ha; for pest or weed control at 35 g/ha: 35 g ai/ha; for pest or weed control at 70 g/ha: 70 g ai/ha; for GR80 Value HELAN: calculated by probit analysis, dose for 80% visual injury, may be extrapolated. On the procedure:
as §1, §2
(§3) By applying the well-accepted probit analysis as described by J. Berkson in […], 48, 565 (1953) and by D. Finney in “Probit Analysis” Cambridge University Press (1952), the dose response data gathered as expressed above can be used to calculate GR20, GR50 and GR80 values, which are defined as growth reduction factors that correspond to the effective dose of herbicide required to kill or control 20 percent, 50 percent or 80 percent, respectively, of a target plant. Data not expressed in Table A may have been used to calculate some of the GR80 values in Table B. In some cases, the GR80 values may be extrapolations calculated based on the slope of the dose response curve for individual compounds listed in Table B.

Assay [2] has as its system Viola tricolor L. (pansy). Particulars: for pest or weed control at 140 g/ha: 140 g ai/ha; for pest or weed control at 35 g/ha: 35 g ai/ha; for pest or weed control at 70 g/ha: 70 g ai/ha; for GR80 Value VIOTR: calculated by probit analysis, dose for 80% visual injury, may be extrapolated. On the procedure:
as §1, §2, §3

The test system of assay [3] is Echinochloa crus-galli (L.) Beauv. (barnyardgrass). Particulars: for pest or weed control at 140 g/ha: 140 g ai/ha; for pest or weed control at 35 g/ha: 35 g ai/ha; for pest or weed control at 70 g/ha: 70 g ai/ha; for GR80 Value ECHCG: calculated by probit analysis, dose for 80% visual injury, may be extrapolated. Here is the method: as §1, §2, §3
The subject of assay [4] is Chenopodium album L. (lambsquarters, common). Particulars: for pest or weed control at 140 g/ha: 140 g ai/ha; for pest or weed control at 35 g/ha: 35 g ai/ha; for pest or weed control at 70 g/ha: 70 g ai/ha; for GR80 Value CHEAL: calculated by probit analysis, dose for 80% visual injury, may be extrapolated. Here is the method:
as §1, §2, §3

Assay [5] concerns Euphorbia heterophylla L. (poinsettia, wild). The conditions noted are these: for pest or weed control at 140 g/ha: 140 g ai/ha; for pest or weed control at 35 g/ha: 35 g ai/ha; for pest or weed control at 70 g/ha: 70 g ai/ha; for GR80 Value EPHHL: calculated by probit analysis, dose for 80% visual injury, may be extrapolated. Here is the method: as §1, §2, §3
For assay [6], the system named is Amaranthus retroflexus L. (pigweed, redroot). The conditions noted are these: for pest or weed control at 140 g/ha: 140 g ai/ha; for pest or weed control at 35 g/ha: 35 g ai/ha; for GR80 Value AMARE: calculated by probit analysis, dose for 80% visual injury, may be extrapolated. On the procedure: as §1, §2, §3
[7] abbreviates: Helianthus annuus, 336 h, foliar post-emergent, scored after 14 days, read-out: % Visual Growth Reduction HELAN.
Where [8] appears, read: Viola tricolor, 336 h, foliar post-emergent, scored after 14 days, read-out: % Visual Growth Reduction VIOTR.
[9] abbreviates: Echinochloa crus-galli, 336 h, foliar post-emergent, scored after 14 days, read-out: % Visual Growth Reduction ECHCG.
[10] abbreviates: Chenopodium album, 336 h, foliar post-emergent, scored after 14 days, read-out: % Visual Growth Reduction CHEAL.
Setting [11] is: Euphorbia heterophylla, 336 h, foliar post-emergent, scored after 14 days, read-out: % Visual Growth Reduction EPHHL.
Where [12] appears, read: Amaranthus retroflexus, 336 h, foliar post-emergent, scored after 14 days, read-out: % Visual Growth Reduction AMARE.

SMILES strings stand for the structures.

In the case of `COC(=O)c1nc(C(F)=C(F)F)cc(N)c1Cl` [Compound F17], the plant injury at 140 g/ha in the assay on Oryza sativa L. (rice) and in the assay on Zea mays L. (corn) was 0% each time. Further, the pest or weed control at 140 g/ha in assay [1] (setting [7]) turned out to be 60%; in assay [2] (setting [8]) it was 0%; in assay [3] (setting [9]) it was 0%; in assay [4] (setting [10]) it was 0%; in assay [5] (setting [11]) it was 0%; in assay [6] (setting [12]) it was 0%.
With `COC(=O)c1nc(CCC(F)(F)F)c(Cl)c(N)c1Cl` [Compound F5, methyl 4-amino-3,5-dichloro-6-(3,3,3-trifluoropropyl)picolinate], the plant injury at 280 g/ha in the assay with Oryza sativa L. (rice) (280 g ai/ha) and with Zea mays L. (corn) (280 g ai/ha) was 0% in each case. Moreover, the pest or weed control at 280 g/ha in assay [1] (Helianthus annuus, 336 h, 280 g ai/ha, foliar post-emergent, scored after 14 days, read-out: % Visual Growth Reduction HELAN) came out at 60%; in assay [2] (Viola tricolor, 336 h, 280 g ai/ha, foliar post-emergent, scored after 14 days, read-out: % Visual Growth Reduction VIOTR), 0%; in assay [3] (Echinochloa crus-galli, 336 h, 280 g ai/ha, foliar post-emergent, scored after 14 days, read-out: % Visual Growth Reduction ECHCG), 0%; in assay [4] (Chenopodium album, 336 h, 280 g ai/ha, foliar post-emergent, scored after 14 days, read-out: % Visual Growth Reduction CHEAL), 0%; in assay [5] (Euphorbia heterophylla, 336 h, 280 g ai/ha, foliar post-emergent, scored after 14 days, read-out: % Visual Growth Reduction EPHHL), 0%; in assay [6] (Amaranthus retroflexus, 336 h, 280 g ai/ha, foliar post-emergent, scored after 14 days, read-out: % Visual Growth Reduction AMARE), 0%.
Regarding `COC(=O)c1nc(C(C)F)c(F)c(N)c1Cl` (stereo not drawn) [Compound F15, Methyl 4-amino-3-chloro-5-fluoro-6-(1-fluoroethyl)picolinate], the plant injury at 35 g/ha with Oryza sativa L. (rice) and with Zea mays L. (corn) was 0% each time. Further, the plant injury at 70 g/ha in the assay on Oryza sativa L. (rice) and with Zea mays L. (corn) was 0% throughout. Besides, the plant injury at 140 g/ha in the assay with Oryza sativa L. (rice) and in the assay with Zea mays L. (corn) was 0% throughout. For the same molecule, the pest or weed control at 35 g/ha in assay [1] (setting [7]) came to 80%; in assay [2] (setting [8]), 25%; in assay [3] (setting [9]) it was 0%; in assay [4] (setting [10]), 80%; in assay [5] (setting [11]), 55%; in assay [6] (setting [12]) it was 90%. For the same molecule, the pest or weed control at 70 g/ha in assay [1] (setting [7]) is 90%; in assay [2] (setting [8]) it was 45%; in assay [3] (setting [9]), 20%; in assay [4] (setting [10]), 85%; in assay [5] (setting [11]) it was 85%; in assay [6] (Amaranthus retroflexus, 336 h, 70 g ai/ha, foliar post-emergent, scored after 14 days, read-out: % Visual Growth Reduction AMARE), 90%. Besides, the pest or weed control at 140 g/ha in assay [1] (setting [7]) was 100%; in assay [2] (setting [8]), 55%; in assay [3] (setting [9]), 30%; in assay [4] (setting [10]), 80%; in assay [5] (setting [11]), 90%; in assay [6] (setting [12]), 95%. In assay [1], the “GR80 Value HELAN” value is reported as 24.4 g ai/ha. Besides, in assay [2], the “GR80 Value VIOTR” value is on record as >140 g ai/ha. Moreover, in assay [3], the “GR80 Value ECHCG” value is recorded as >140 g ai/ha. Moreover, in assay [4], the “GR80 Value CHEAL” value is on record as 48.6 g ai/ha. Also, the “GR80 Value EPHHL” value in assay [5] is 75.1 g ai/ha. For the same molecule, in assay [6], the “GR80 Value AMARE” value is on record as 22.3 g ai/ha.
For the molecule `Nc1c(Cl)c(C(=O)O)nc(C(F)F)c1Cl` [Compound F13, 4-Amino-3,5-dichloro-6-(difluoromethyl)picolinic acid], the plant injury at 35 g/ha in the assay on Oryza sativa L. (rice) and in the assay on Zea mays L. (corn) was 0% in each case. Moreover, the plant injury at 70 g/ha in the assay on Oryza sativa L. (rice) and in the assay on Zea mays L. (corn) was 0% throughout. Further, the plant injury at 140 g/ha in the assay on Oryza sativa L. (rice) was found to be 0%; in the assay on Zea mays L. (corn), 5%. Further, the pest or weed control at 35 g/ha is 60% in assay [1] (setting [7]); 0% in assay [2] (setting [8]); 0% in assay [3] (setting [9]); 90% in assay [4] (setting [10]); 100% in assay [5] (setting [11]); 90% in assay [6] (setting [12]). The pest or weed control at 70 g/ha in assay [1] (setting [7]) was determined as 75%; in assay [2] (setting [8]), 0%; in assay [3] (setting [9]) it was 0%; in assay [4] (setting [10]) it was 90%; in assay [5] (setting [11]), 100%. Moreover, the pest or weed control at 140 g/ha in assay [1] (setting [7]) was 85%; in assay [2] (setting [8]), 0%; in assay [3] (setting [9]), 10%; in assay [4] (setting [10]), 90%; in assay [5] (setting [11]), 100%; in assay [6] (setting [12]) it was 90%. For the same molecule, the “GR80 Value HELAN” value in assay [1] was 85.8 g ai/ha. Further, the “GR80 Value VIOTR” value in assay [2] is reported as >140 g ai/ha. Further, in assay [3], the “GR80 Value ECHCG” value is recorded as >149 g ai/ha. Further, in assay [4], the “GR80 Value CHEAL” value was 25.1 g ai/ha. Also, in assay [5], the “GR80 Value EPHHL” value is given as 21.7 g ai/ha. In addition, the “GR80 Value AMARE” value in assay [6] is on record as 27.6 g ai/ha.

Values taken from patent US9603364B2 (Dow AgroSciences LLC, priority 2013, dated 2017).
